Source: PubChem BioAssay (NCI)
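48-hour exposure; five concentrations; linearly interpolated endpoints. TGI is the concentration that stops growth completely.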

Legend:
Test in all cases: inhibition of tumour cell growth, NCI panel, 48 h
786-0 renal = test system: 786-0 renal
A498 renal = test system: A498 renal
A549 NSCLC = test system: A549 NSCLC
ACHN renal = test system: ACHN renal
BT-549 breast = test system: BT-549 breast
CAKI-1 renal = test system: CAKI-1 renal
CCRF-CEM leukemia = test system: CCRF-CEM leukemia
COLO 205 colon = test system: COLO 205 colon
DU-145 prostate = test system: DU-145 prostate
EKVX NSCLC = test system: EKVX NSCLC
HCC-2998 colon = test system: HCC-2998 colon
HCT-116 colon = test system: HCT-116 colon
HCT-15 colon = test system: HCT-15 colon
HL-60(TB) leukemia = test system: HL-60(TB) leukemia
HOP-62 NSCLC = test system: HOP-62 NSCLC
HOP-92 NSCLC = test system: HOP-92 NSCLC
HS 578T breast = test system: HS 578T breast
HT29 colon = test system: HT29 colon
IGROV1 ovarian = test system: IGROV1 ovarian
K-562 leukemia = test system: K-562 leukemia
KM12 colon = test system: KM12 colon
LOX IMVI melanoma = test system: LOX IMVI melanoma
M14 melanoma = test system: M14 melanoma
MALME-3M melanoma = test system: MALME-3M melanoma
MCF7 breast = test system: MCF7 breast
MDA-MB-231 breast = test system: MDA-MB-231 breast
MDA-MB-435 = test system: MDA-MB-435
MDA-N = test system: MDA-N
MOLT-4 leukemia = test system: MOLT-4 leukemia
NCI-H226 lung = test system: NCI-H226 lung
NCI-H23 lung = test system: NCI-H23 lung
NCI-H460 lung = test system: NCI-H460 lung
NCI-H522 lung = test system: NCI-H522 lung
NCI/ADR-RES ovarian = test system: NCI/ADR-RES ovarian
OVCAR-3 ovarian = test system: OVCAR-3 ovarian
OVCAR-4 ovarian = test system: OVCAR-4 ovarian
OVCAR-5 ovarian = test system: OVCAR-5 ovarian
OVCAR-8 ovarian = test system: OVCAR-8 ovarian
PC-3 prostate = test system: PC-3 prostate
RPMI-8226 leukemia = test system: RPMI-8226 leukemia
RXF 393 renal = test system: RXF 393 renal
SF-268 CNS = test system: SF-268 CNS
SF-295 CNS = test system: SF-295 CNS
SK-MEL-2 melanoma = test system: SK-MEL-2 melanoma
SK-MEL-28 melanoma = test system: SK-MEL-28 melanoma
SK-MEL-5 melanoma = test system: SK-MEL-5 melanoma
SK-OV-3 ovarian = test system: SK-OV-3 ovarian
SN12C renal = test system: SN12C renal
SNB-19 CNS = test system: SNB-19 CNS
SNB-75 CNS = test system: SNB-75 CNS
SR leukemia = test system: SR leukemia
SW-620 colon = test system: SW-620 colon
T-47D breast = test system: T-47D breast
U251 CNS = test system: U251 CNS
UACC-257 melanoma = test system: UACC-257 melanoma
UACC-62 melanoma = test system: UACC-62 melanoma
UO-31 renal = test system: UO-31 renal
SF-539 CNS = test system: SF-539 CNS
TK-10 renal = test system: TK-10 renal

In the case of `O=CC1OC(=O)c2cc(O)c(O)c(O)c2-c2c(cc(O)c(O)c2O)C(=O)OC1C1OC(=O)c2cc(O)c(O)c(O)c2-c2c(O)c(O)c3oc(=O)c4c(c(O)c(O)c5oc(=O)c2c3c54)-c2c(cc(O)c(O)c2O)C(=O)OCC1O` (configuration not stated), the TGI (786-0 renal) is reported as 42.6 µM, the TGI (A498 renal) is reported as > 100 µM and the TGI (A549 NSCLC) is reported as > 100 µM. For the same molecule, the TGI (ACHN renal) was > 100 µM, the TGI (BT-549 breast) was > 100 µM and the TGI (CAKI-1 renal) was 25.9 µM. For the same molecule, the TGI (CCRF-CEM leukemia) was > 100 µM, the TGI (COLO 205 colon) was > 100 µM and the TGI (DU-145 prostate) was > 100 µM. For the same molecule, the TGI (EKVX NSCLC) was > 100 µM, the TGI (HCC-2998 colon) was > 100 µM and the TGI (HCT-116 colon) was 32.6 µM. The TGI (HCT-15 colon) was > 100 µM, the TGI (HL-60(TB) leukemia) was > 100 µM and the TGI (HOP-62 NSCLC) was > 100 µM. For the same molecule, the TGI (HOP-92 NSCLC) was > 100 µM, the TGI (HS 578T breast) was > 100 µM and the TGI (HT29 colon) was 29.6 µM. For the same molecule, the TGI (IGROV1 ovarian) was > 100 µM, the TGI (K-562 leukemia) was 71.8 µM and the TGI (KM12 colon) was > 100 µM. The TGI (LOX IMVI melanoma) was 29.2 µM, the TGI (M14 melanoma) was > 100 µM and the TGI (MALME-3M melanoma) was > 100 µM. For the same molecule, the TGI (MCF7 breast) was 40.6 µM, the TGI (MDA-MB-231 breast) was 37 µM and the TGI (MDA-MB-435) was 46.4 µM. The TGI (MDA-N) was 51.9 µM, the TGI (MOLT-4 leukemia) was 90.1 µM and the TGI (NCI-H226 lung) was > 100 µM. For the same molecule, the TGI (NCI-H23 lung) was > 100 µM, the TGI (NCI-H460 lung) was > 100 µM and the TGI (NCI-H522 lung) was 85.7 µM. The TGI (NCI/ADR-RES ovarian) was > 100 µM, the TGI (OVCAR-3 ovarian) was > 100 µM and the TGI (OVCAR-4 ovarian) was 38.2 µM. For the same molecule, the TGI (OVCAR-5 ovarian) was > 100 µM, the TGI (OVCAR-8 ovarian) was 41.2 µM and the TGI (PC-3 prostate) was > 100 µM. For the same molecule, the TGI (RPMI-8226 leukemia) was > 100 µM, the TGI (RXF 393 renal) was > 100 µM and the TGI (SF-268 CNS) was > 100 µM. For the same molecule, the TGI (SF-295 CNS) was 89.4 µM, the TGI (SK-MEL-2 melanoma) was > 100 µM and the TGI (SK-MEL-28 melanoma) was > 100 µM. For the same molecule, the TGI (SK-MEL-5 melanoma) was > 100 µM, the TGI (SK-OV-3 ovarian) was > 100 µM and the TGI (SN12C renal) was 35.5 µM. For the same molecule, the TGI (SNB-19 CNS) was > 100 µM, the TGI (SNB-75 CNS) was 93.8 µM and the TGI (SR leukemia) was > 100 µM. For the same molecule, the TGI (SW-620 colon) was 47.7 µM, the TGI (T-47D breast) was > 100 µM and the TGI (U251 CNS) was 44.8 µM. For the same molecule, the TGI (UACC-257 melanoma) was > 100 µM, the TGI (UACC-62 melanoma) was > 100 µM and the TGI (UO-31 renal) was > 100 µM.

`C#CCn1c(=O)ccn(/C(=C/C(=O)OCC)C(=O)OCC)c1=O` showed a TGI (786-0 renal) of 32.5 µM, a TGI (A498 renal) of 30.8 µM and a TGI (A549 NSCLC) of 34.9 µM. The TGI (ACHN renal) was 3.21 µM, the TGI (BT-549 breast) was 23.2 µM and the TGI (CAKI-1 renal) was 3.05 µM. The TGI (CCRF-CEM leukemia) was 6.35 µM, the TGI (DU-145 prostate) was 30.7 µM and the TGI (EKVX NSCLC) was 20.3 µM. For the same molecule, the TGI (HCT-116 colon) was 18.7 µM, the TGI (HCT-15 colon) was 7.8 µM and the TGI (HL-60(TB) leukemia) was > 52.9 µM. It also gave a TGI (HOP-62 NSCLC) of 31.8 µM, a TGI (HOP-92 NSCLC) of 6.32 µM and a TGI (HS 578T breast) of 43.5 µM. For the same molecule, the TGI (HT29 colon) was 5.64 µM, the TGI (IGROV1 ovarian) was 13.8 µM and the TGI (K-562 leukemia) was > 100 µM. It also gave a TGI (KM12 colon) of 33.8 µM, a TGI (LOX IMVI melanoma) of 40.3 µM and a TGI (M14 melanoma) of 11.8 µM. For the same molecule, the TGI (MALME-3M melanoma) was 5.19 µM, the TGI (MCF7 breast) was 13 µM and the TGI (MDA-MB-231 breast) was 40.9 µM. For the same molecule, the TGI (MDA-MB-435) was 28.1 µM, the TGI (MDA-N) was 41.1 µM and the TGI (MOLT-4 leukemia) was > 56.4 µM. The TGI (NCI-H226 lung) was 39.7 µM, the TGI (NCI-H23 lung) was 25.1 µM and the TGI (NCI-H460 lung) was 10.3 µM. It also gave a TGI (NCI/ADR-RES ovarian) of 13.8 µM, a TGI (OVCAR-3 ovarian) of 13.7 µM and a TGI (OVCAR-4 ovarian) of 17.8 µM. For the same molecule, the TGI (OVCAR-5 ovarian) was 21.9 µM, the TGI (OVCAR-8 ovarian) was 5.11 µM and the TGI (PC-3 prostate) was 28.1 µM. For the same molecule, the TGI (RPMI-8226 leukemia) was > 24.6 µM, the TGI (RXF 393 renal) was 3.3 µM and the TGI (SF-268 CNS) was 26.9 µM. The TGI (SF-295 CNS) was > 60.5 µM, the TGI (SF-539 CNS) was 3.99 µM and the TGI (SK-MEL-2 melanoma) was 30.2 µM. For the same molecule, the TGI (SK-MEL-28 melanoma) was 21.6 µM, the TGI (SK-MEL-5 melanoma) was 31 µM and the TGI (SK-OV-3 ovarian) was > 100 µM. For the same molecule, the TGI (SN12C renal) was 29.5 µM, the TGI (SNB-19 CNS) was 40.7 µM and the TGI (SNB-75 CNS) was 46.5 µM. For the same molecule, the TGI (SR leukemia) was > 100 µM, the TGI (T-47D breast) was 14.1 µM and the TGI (TK-10 renal) was 3.68 µM. For the same molecule, the TGI (U251 CNS) was 35.4 µM, the TGI (UACC-257 melanoma) was 29.6 µM and the TGI (UACC-62 melanoma) was 27.8 µM. The TGI (UO-31 renal) was 25.3 µM.
